This assay addresses Protein kinase C alpha type (Homo sapiens, UniProt P17252). The assay can be described thus: Displacement of [20-3H]-phorbol 12,13-dibutyrate (PDBU) from PKCalpha (C1b domain).

As a reminder, the Ki is a dissociation constant, usually derived from enzyme kinetics or from competition with a known ligand. Low readings indicate higher affinity, high ones lower affinity. For `CCCCCCCCCCCCC/C=C1/COC(CO)(COC(C)=O)C1` (stereo not drawn), the Ki was 7.58 µM. The result for `CCCCCCCCCCCCC/C=C1\CC(CO)(COCC)OC1=O` (stereo not drawn) reads 4.98 µM; that for `CCCCCCCCCCCCC/C=C1/CC(CO)(COCC)OC1=O` (stereo not drawn), 7.46 µM.
